Read-outs that look alike come from different tables or passages of the source. Values belong to the molecule of their own block, whether it stands above or below them.
Legend:
[1] = Pharmacokinetics of tyrosol metabolites in rat plasma after single oral dose of tyrosol (HPLC); format: in vivo, Sprague-Dawley rats; conditions: for Cmax / Tmax / half-life / AUC(0-t): male, Sprague-Dawley; for AUC(0-t): n = 3, read-out: AUC (0-8h)
Description: To understand the time-dependent changes in the concentration of tyrosol metabolites, the level of metabolites in plasma samples was measured by HPLC at different time points (15, 30, 60, 120, and 240 min) after tyrosol administration. […] The inter- and intra-day precision and accuracy were determined by replicate analysis of the samples at two concentrations of each metabolite: 0.1 and 2 mg/mL tyrosol-4-sulfate. The stability of the metabolites was determined at room temperature over 24 h.
(§1) Male Sprague-Dawley rats with average weights of 250 g were purchased from Orient Bio Inc. (Seoul, Korea) and acclimatized to laboratory conditions comprising a 12:12 h light-dark cycle, temperature of 24 °C, and humidity of 55% for one week. Animals were fed AIN-93G diet and provided water ad libitum during acclimation. On the dosing day, the rats were gavaged with tyrosol (100 or 200 mg/kg) as a suspension in polyethylene glycol. After the oral administration of a single dose of tyrosol to rats, blood samples were collected from the eye of the rats at different time points after dosing (0.25, 0.5, 1, 2, 4, 8, and 16 h). Urine samples were collected just before administration of tyrosol and during 0–1, 1–2, 2–4, 4–8, and 8–24 h after dosing. Liver, lung, heart, spleen, kidney, and epididymal adipose tissues were excised as quickly as possible and stored frozen at −80 °C until use. Animal studies were conducted in accordance with our institutional and national guidelines, and all experimental procedures were approved by the Korea Food Research Institute Animal Care and Use Committee (KFRI-IACUC, #2015-0016).
To 300 µL of serum, 700 µL of methanol was added, followed by vortex mixing for 5 min. After centrifugation at 13,000 rpm for 15 min, the supernatant was collected and injected into the HPLC or LC-MS system.
(§2) HPLC analyses were performed on a Jasco high-performance liquid chromatography (HPLC) system (Jasco Corporation, Tokyo, Japan) equipped with a Jasco UV-2089 plus quaternary gradient pump, Jasco AS-2057 plus intelligent sample injector, Jasco UV-2075 UV/Vis detector, and Borwin chromatography software version 1.5. Separation was achieved using an XTerra RP18 column (4.6 × 250 mm, 5 µM, Waters) and a guard column. Elution was performed at a flow rate of 1.0 mL/min at 30 °C. The solvents for eluent were 1% (v/v) phosphoric acid (solvent A) and acetonitrile (solvent B). The solvent gradient changed according to the following conditions: 100% A to 95% A over 10 min, to 85% A over 10 min, to 70% A over 10 min, to 65% A over 5 min, to 90% A over 5 min, and to 100% A over 5 min, followed by 5 min of maintenance. The UV detector was set at a wavelength of 280 nm.
(§3) A non-compartmental pharmacokinetics analysis for each tyrosol metabolite was performed using PK solution software version 2.0 (Summit Research Services, Montrose, CO, USA). Cmax, Tmax, and T1/2 were estimated from the plasma concentration-time curve. The area under the curve (AUC) for the plasma concentration over time was calculated using the trapezoidal rule.

[2] = Pharmacokinetics of tyrosol metabolites in rat urine after single oral dose of tyrosol (HPLC); format: in vivo, Sprague-Dawley rats; conditions: for Tmax / half-life: male, Sprague-Dawley; for Tmax: rat, urine, po
Description: Urine samples were collected at 0–1, 1–2, 2–4, 4–8, and 8–24 h after administration of tyrosol.
as §1, §2, §3

[3] = Tissue distribution of tyrosol-derived metabolites after oral administration of tyrosol; format: in vivo, Sprague-Dawley rats
Description: To study the tissue distribution of tyrosol metabolites, organs were collected at different time points following oral administration of tyrosol. T4S and M2 were detected in each tissue within 1 h after tyrosol administration (Figure 5A,B). […] These findings indicate that the metabolites are mainly excreted by the kidneys through the liver. Specifically, we propose that the rapid uptake of tyrosol is followed by its sulfation in the liver.
Figure 5 Tissue distribution of tyrosol-4-sulfate (A) and M2 (B). Tissue samples (heart, kidney, spleen, lung, liver, epididymal adipose tissue) were collected at different time intervals post-dosing (0, 0.5, 1, 2, 4, 8, and 16 h) and the concentration of tyrosol-4-sulfate and M2 was measured. Each point represents mean ± SD (n = 3).
as §1
Each tissue was thawed, rinsed with ice-cold saline, blotted dry, weighed, and homogenized (1:1, w/v) in water using homogenizer (MP Fastprep instrument, MP Biomedical, Solon, OH, USA). The homogenates (300 µL) were transferred into clean tubes, methanol (700 µL) was added, and the tubes were vortex-mixed for 5 min. The supernatant was collected after centrifugation at 13,000 rpm for 15 min. The supernatant was evaporated to dryness at room temperature under a stream of nitrogen gas. The residue was resuspended in methanol (100 µL).
as §2

[4] = system: human hepatoma HepG2 cells; set-up: method as in PMID 16366672; conditions: cited from earlier work

time of uptake after oral administration of tyrosol [1]: ≤ 1 h
Cmax ([1]; tyrosol oral 100 mg/kg b.w.): 7900 ng/mL
Tmax ([1]; tyrosol oral 100 mg/kg b.w.): 0.178 h
half-life ([1]; tyrosol oral 100 mg/kg b.w.): 0.23 h
AUC(0-t) ([1]; tyrosol oral 100 mg/kg b.w.): 2500 ng·h/mL
Cmax ([1]; tyrosol oral 200 mg/kg b.w.): 12100 ng/mL
Tmax ([1]; tyrosol oral 200 mg/kg b.w.): 0.177 h
half-life ([1]; tyrosol oral 200 mg/kg b.w.): 0.202 h
AUC(0-t) ([1]; tyrosol oral 200 mg/kg b.w.): 6600 ng·h/mL
time by which eliminated in urine ([2]; after oral tyrosol): ≤ 12 h
Tmax ([2]; 100 mg/kg, tyrosol oral 100 mg/kg b.w., read-out: Tmax): 2 h
Tmax ([2]; 200 mg/kg, tyrosol oral 200 mg/kg b.w., read-out: Tmax): 2.9 h
Tmax ([2]; 200 mg/kg, tyrosol oral 100 and 200 mg/kg, read-out: Tmax in urine (range over doses)): 2 to 2.9 h
half-life ([2]; tyrosol oral 100 mg/kg b.w.): 1.2 h
half-life ([2]; tyrosol oral 200 mg/kg b.w.): 1.2 h
time to detection in each tissue ([3]; rat tissues after oral tyrosol): ≤ 1 h
detection in epididymal fat and the lungs ([3]; rat, after oral tyrosol): not detected
time of elimination from organs and tissues ([3]; rat, after oral tyrosol): ≤ 4 h
tissues of greatest deposition / highest concentration by tissue weight ([3]; rat, after oral tyrosol): liver, followed by the kidney and spleen
tissues of greatest deposition / highest concentration by tissue weight ([3]; rat, after oral tyrosol, listed as tyrosol-4-sulfate): liver and the kidney
Structure (SMILES): O=S(=O)(O)Oc1ccc(CCO)cc1 [T4S, tyrosol-4-sulfate]

Structure (SMILES): OCCc1ccc(O)cc1 [Tyrosol]
detection of sulfated metabolites [4]: no detection
metabolism to glucuronide conjugates [4]: poorly metabolized

Source: paper PMC6273429, “Pharmacokinetics of Tyrosol Metabolites in Rats” (Molecules, 2016)
